Data as given in patent publication US10723727B2, “Tubulysin analogs and methods for their preparation” (priority 2016, dated 2020).

Legend:
[1] = biological target: T1, tubulin/RB3-stathmin-like-domain (RB3-SLD-tdm) complex (Sus scrofa, UniProt P02550+P02554); assay: Tubulin Peptide-Binding Site Competition Assay (fluorescence polarization); parameters: species or system Porcine; details: FP competition with BODIPY-labeled vinca peptide probe; read after five hours at 22° C.; read-out: Tubulin Peptide-Binding Site Competition Assay IC50
T1 construct: purchased Cytoskeleton, Inc. T240; host or cells: RB3-SLD was made in house in E. coli
Experimental: Tubulin Peptide-Binding Site Competition Assay
Tubulin binding potency was measured for payloads or cysteine-capped linker-payloads using a fluorescence polarization (FP) competition assay. The binding of a BODIPY-labeled vinca peptide probe (# B31) to a tubulin/RB3-stathmin-like-domain (RB3-SLD-tdm) complex generates a high FP signal, which can be decreased when mixing with test compounds that compete with the FP probe. The order of addition for the reagents in the FP assay was designed to pre-mix the FP probe with various concentrations of the test compound before mixing them with the tubulin/RB3-SLD-dm complex. The final assay concentrations of the probe, tubulin and RB3-SLD-dm were 3, 6, and 100 nM, respectively. IC50 for each test compound is obtained by fitting the dose-dependent FP signal change using GraphPad Prism version 5 software (La Jolla, Calif.) while Ki is converted from the IC50 using the equations described previously (Nikolovska-Coleska et al., 2004). The FP signals were measured on an Infinite M1000 (Tecan, San Jose, Calif.) using ProxiPlate-384 F Plus, Black (Perkin-Elmer, Waltham, Mass., Cat #6008260) with 15 μL of solution per well. Sample dilution and mixing were done using a Beckman Biomek XF (Brea, Calif.). Porcine tubulin was purchased from Cytoskeleton, Inc. (Denver, Colo., Cat #T240) and RB3-SLD was expressed in E. coli. and purified on Q and then Superdex75 columns. The FP assay test for each compound was run in duplicates by mixing 6 μL of solution 1 containing 2.5× test compound (2.5× serial dilution from 7.8 μM maximum concentration, 11 total concentrations) and 7.5 nM of the FP probe in 80 mM PIPES, pH 7.0, 0.02% Tween 20, 2 mM MgCl2, 1 mM EGTA and 3% DMSO with 9 μL of solution 2 containing […] porcine tubulin and 167 nM of RB3-SLD-dm peptide ([…]-[…]) on ProxiPlate-384 micro-plates.

[2] = tested on: N87 (gastric cancer) cells; assay: In vitro cell assay (MTS cell viability), N87; type: cell-based; details: 96 h, free compounds; 96 hours after treatment
Experimental: (§1) In Vitro Cell Assay Procedure
(§2) Target expressing (BT474 (breast cancer), N87 (gastric cancer), HCC1954 (breast cancer), MDA-MB-361-DYT2 (breast cancer)) or non-expressing (HT-29) cells were seeded in 96-well cell culture plates for 24 hours before treatment. Cells were treated with 3-fold serially diluted antibody-drug conjugates or free compounds (i. e. no antibody conjugated to the drug) in duplicate at 10 concentrations. Cell viability was determined by CellTiter 96® AQueous One Solution Cell Proliferation MTS Assay (Promega, Madison Wis.) 96 hours after treatment. Relative cell viability was determined as percentage of untreated control. IC50 values were calculated using a four parameter logistic model #203 with XLfit v4. 2 (IDBS, Guildford, Surry, UK).

[3] = tested on: MDA-MB-361-DYT2 (breast cancer) cells; assay: In vitro cell assay (MTS cell viability), MDA-MB-361-DYT2; type: cell-based; details: 96 h, free compounds; 96 hours after treatment
Experimental: as §1, §2

SMILES	IC50 [1] [nM]	IC50 [2] [nM]	IC50 [3] [nM]
CC[C@H](C)[C@H](NC(=O)[C@H]1CCCCN1C)C(=O)N(C)[C@H](C[C@@H](OC(C)=O)c1nc(C(=O)NC(Cc2ccccc2)c2nc(C(=O)O)cs2)cs1)C(C)C (stereo partly drawn) [#B37, 2-(1-{[(2-{(1R,3R)-1-(acetyloxy)-4-methyl-3-[methyl(N-{[(2R)-1-methylpiperidin-2-yl]carbonyl}-L-isoleucyl)amino]pentyl}-1,3-thiazol-4-yl)carbonyl]amino}-2-phenylethyl)-1,3-thiazole-4-carboxylic acid]	1.3	228	240
CC[C@H](C)[C@H](NC(=O)[C@@]1(C)CCCN1C)C(=O)N(C)[C@H](C[C@@H](OC(C)=O)c1nc(C(=O)N[C@@H](Cc2ccccc2)C[C@H](C)C(=O)O)cs1)C(C)C [#B8, 1,2-dimethyl-D-prolyl-N-[(1R,3R)-1-(acetyloxy)-1-(4-{[(2R,4S)-4-carboxy-1-phenylpentan-2-yl]carbamoyl}-1,3-thiazol-2-yl)-4-methylpentan-3-yl]-N-methyl-L-isoleucinamide]	1.8	0.104	0.063
CC[C@H](C)[C@H](NC(=O)[C@H]1CCCCN1C)C(=O)N(C)[C@H](C[C@@H](OC(C)=O)c1nc(C(=O)NCC2OCCc3ccccc32)cs1)C(C)C (stereo partly drawn) [#B38, (1R,3R)-1-{4-[(3,4-dihydro-1H-isochromen-1-ylmethyl)carbamoyl]-1,3-thiazol-2-yl}-4-methyl-3-[methyl(N-{[(2R)-1-methylpiperidin-2-yl]carbonyl}-L-isoleucyl)amino]pentyl acetate]	4.8	3.06	0.925
CC[C@H](C)[C@H](NC(=O)[C@H]1CCCCN1C)C(=O)N(C)[C@H](C[C@@H](OC(C)=O)c1nc(C(=O)NCCn2ccccc2=O)cs1)C(C)C [#B41, (1R,3R)-4-methyl-3-[methyl(N-{[(2R)-1-methylpiperidin-2-yl]carbonyl}-L-isoleucyl)amino]-1-[4-{[2-(2-oxopyridin-1(2H)-yl)ethyl]carbamoyl}-1,3-thiazol-2-yl)pentyl acetate]	4.41	2	1.44
CC[C@H](C)[C@H](NC(=O)C1(N(C)C)CCCC1)C(=O)N(C)[C@H](C[C@@H](OC(C)=O)c1nc(C(=O)N[C@@H](Cc2ccccc2)C[C@H](C)C(=O)OC)cs1)C(C)C [#B1, methyl (2S,4R)-4-{[(2-{(1R,3R)-1-(acetyloxy)-3-[(N-{[1-(dimethylamino)cyclopentyl]carbonyl}-L-isoleucyl)(methyl)amino]-4-methylpentyl}-1,3-thiazol-4-yl)carbonyl]amino}-2-methyl-5-phenylpentanoate]	250	18.9	19
CC[C@H](C)[C@H](NC(=O)[C@@]1(C)CCCN1C)C(=O)N(C)[C@H](C[C@@H](OC(C)=O)c1nc(C(=O)NCCc2c[nH]cn2)cs1)C(C)C [#B54, 1,2-dimethyl-D-prolyl-N-[(1R,3R)-1-(acetyloxy)-1-(4-{[2-(1H-imidazol-4-yl)ethyl]carbamoyl}-1,3-thiazol-2-yl)-4-methylpentan-3-yl]-N-methyl-L-isoleucinamide]	60.6	–	–
CC[C@H](C)[C@H](NC(=O)[C@@]1(C)CCCN1C)C(=O)N(C)[C@H](C[C@@H](OC(C)=O)c1nc(C(=O)NCCc2c[nH]c3ccccc23)cs1)C(C)C [#B59, 1,2-dimethyl-D-prolyl-N-[(1R,3R)-1-(acetyloxy)-1-(4-{[2-(1H-indol-3-yl)ethyl]carbamoyl}-1,3-thiazol-2-yl)-4-methylpentan-3-yl]-N-methyl-L-isoleucinamide]	64.6	–	–
CC[C@H](C)[C@H](NC(=O)[C@@]1(C)CCCN1C)C(=O)N(C)[C@H](C[C@@H](OC(C)=O)c1nc(C(=O)NC2(Cc3ccccc3)CC2)cs1)C(C)C [#B55]	28.4	–	–
CC[C@H](C)[C@H](NC(=O)[C@@]1(C)CCCN1C)C(=O)N(C)[C@H](C[C@@H](OC(C)=O)c1nc(C(=O)NCCc2cccc3ccccc23)cs1)C(C)C [#B70, 1,2-dimethyl-D-prolyl-N-[(1R,3R)-1-(acetyloxy)-4-methyl-1-(4-{[2-(naphthalen-1-yl)ethyl]carbamoyl}-1,3-thiazol-2-yl)pentan-3-yl]-N-methyl-L-isoleucinamide]	56.3	–	–
CC[C@H](C)[C@H](NC(=O)[C@@]1(C)CCCN1C)C(=O)N(C)[C@H](C[C@@H](OC(C)=O)c1nc(C(=O)NC2(Cc3ccccc3)CCCCC2)cs1)C(C)C [#B47, 1,2-dimethyl-D-prolyl-N-[(1R,3R)-1-(acetyloxy)-1-{4-[(1-benzylcyclohexyl)carbamoyl]-1,3-thiazol-2-yl}-4-methylpentan-3-yl]-N-methyl-L-isoleucinamide]	202	–	–
CC[C@H](C)[C@H](NC(=O)[C@@]1(C)CCCN1C)C(=O)N(C)[C@H](C[C@@H](OC(C)=O)c1nc(C(=O)NCCn2nc(C)cc2C)cs1)C(C)C [#B42, 1,2-dimethyl-D-prolyl-N-[(1R,3R)-1-(acetyloxy)-1-(4-{[2-(3,5-dimethyl-1H-pyrazol-1-yl)ethyl]carbamoyl}-1,3-thiazol-2-yl)-4-methylpentan-3-yl]-N-methyl-L-isoleucinamide]	27.6	–	–
CC[C@H](C)[C@H](NC(=O)[C@@]1(C)CCCN1C)C(=O)N(C)[C@H](C[C@@H](OC(C)=O)c1nc(C(=O)NCC2OCCc3ccccc32)cs1)C(C)C (stereo partly drawn) [#B69, 1,2-dimethyl-D-prolyl-N-[(1R,3R)-1-(acetyloxy)-1-{4-[(3,4-dihydro-1H-isochromen-1-ylmethyl)carbamoyl]-1,3-thiazol-2-yl}-4-methylpentan-3-yl}-N-methyl-L-isoleucinamide]	29.9	–	–
CC[C@H](C)[C@H](NC(=O)[C@@]1(C)CCCN1C)C(=O)N(C)[C@H](C[C@@H](OC(C)=O)c1nc(C(=O)N[C@@H](Cc2ccccc2)CN2CCOCC2)cs1)C(C)C [#B72, 1,2-dimethyl-D-prolyl-N-[(1R,3R)-1-(acetyloxy)-4-methyl-1-(4-{[(2S)-1-(morpholin-4-yl)-3-phenylpropan-2-yl]carbamoyl}-1,3-thiazol-2-yl)pentan-3-yl]-N-methyl-L-isoleucinamide]	32.9	–	–
CCOC(=O)c1ncoc1[C@H](Cc1ccccc1)NC(=O)c1csc([C@@H](C[C@H](C(C)C)N(C)C(=O)[C@@H](NC(=O)[C@@]2(C)CCCN2C)[C@@H](C)CC)OC(C)=O)n1 [#B75, 1,2-dimethyl-D-prolyl-N-{(1R,3R)-1-(acetyloxy)-1-[4-({(1S)-1-[4-(ethoxycarbonyl)-1,3-oxazol-5-yl]-2-phenylethyl}carbamoyl)-1,3-thiazol-2-yl]-4-methylpentan-3-yl}-N-methyl-L-isoleucinamide]	25.8	–	–
CC[C@H](C)[C@H](NC(=O)[C@@]1(C)CCCN1C)C(=O)N(C)[C@H](C[C@@H](OC(C)=O)c1nc(C(=O)NCCCN2CCCC2=O)cs1)C(C)C [#B43, 1,2-dimethyl-D-prolyl-N-[(1R,3R)-1-(acetyloxy)-4-methyl-1-(4-{[3-(2-oxopyrrolidin-1-yl)propyl]carbamoyl}-1,3-thiazol-2-yl)pentan-3-yl]-N-methyl-L-isoleucinamide]	51.8	–	–
CC[C@H](C)[C@H](NC(=O)[C@@]1(C)CCCN1C)C(=O)N(C)[C@H](C[C@@H](OC(C)=O)c1nc(C(=O)NC(Cc2ccccc2)c2ccc(N(C)C)cc2)cs1)C(C)C (stereo partly drawn) [#B66, 1,2-dimethyl-D-prolyl-N-{(1R,3R)-1-(acetyloxy)-1-[4-({1-[4-(dimethylamino)phenyl]-2-phenylethyl}carbamoyl)-1,3-thiazol-2-yl]-4-methylpentan-3-yl}-N-methyl-L-isoleucinamide]	52.2	–	–
